Calls of active or inactive are those of the source. No cut-off for these calls is given here.
Key:
[1] = Antioxidant activity assessed as DPPH scavenging activity measured after 3 mins by spectrophotometric method; assay type: physicochemical
[2] = Antioxidant activity assessed as AAPH free radical scavenging activity measured as trolox equivalent by TRAP assay; assay type: physicochemical
[3] = Antioxidant activity assessed as inhibition of […]-xanthine oxidase system-mediated superoxide formation measured over 7 mins by lucigenin-based chemiluminescence analysis; assay type: physicochemical
[4] = system: A549; test: Cytotoxicity against human A549 cells assessed as reduction in cell viability measured after 48 hrs by FMCA assay; assay type: cell-based; settings: A549, 48 h
[5] = system: A549; test: Cytotoxicity against human A549 cells assessed as reduction in cell viability measured after 48 hrs by luminescence-based ATP assay; settings: A549, 48 h
[6] = system: A549; test: Cytotoxicity against human A549 cells assessed as reduction in cell viability measured after 48 hrs by MTT assay; assay type: cell-based; settings: A549, 48 h
[7] = Cytotoxicity against BAEC assessed as reduction in cell viability measured after 24 hrs by MTT assay; design: species or system Bos taurus; settings: cattle
[8] = Cytotoxicity against BAECs assessed as decrease in total intracellular LDH content at 15 mM measured after 3 hrs by LDH assay relative to vehicle control; assay type: cell-based, Bos taurus; design: scale not given: the % may be the effect or the level left; settings: cattle, baec, 15000 µM
[9] = system: Aorta; test: Potentiation of SNP-induced vasorelaxant activity in Sprague-Dawley rat endothelium-intact aortic rings assessed as reduction in L-phenylephrine hydrochloride-induced contraction at 200 uM relative to SNP; assay type: functional
[10] = Cytotoxicity against BAEC assessed as decrease in total intracellular LDH content at 15 mM measured after 1 hr by LDH assay relative to vehicle-treated control; assay type: cell-based, Bos taurus; design: scale not given: the % may be the effect or the level left; settings: cattle, 15000 µM
[11] = system: Aorta; test: Toxicity in Sprague-Dawley rat endothelium-intact aortic rings at 15 mM measured after 20 mins; settings: 15000 µM
[12] = molecular target: Xanthine dehydrogenase/oxidase (Homo sapiens, UniProt P47989); test: Inhibition of xanthine oxidase (unknown origin) using xanthine as substrate assessed as inhibition of uric acid formation at 1 to 100 uM after 30 mins by spectrophotometric method; settings: 0.5 h
[13] = system: Aorta; test: Protection against NADPH-induced superoxide-mediated tissue damage in Sprague-Dawley rat endothelium-intact aortic rings assessed as inhibition of protein carbonyl formation at 200 uM pre-incubated for 30 mins in presence of DTC prior to NADPH addition measured after 60 mins using 7-hydrazino-4-nitrobenzo-2,1,3-oxadiazole by fluorimetric analysis; assay type: functional
[14] = system: Aorta; test: (§1) Protection against NADPH-induced superoxide-mediated tissue damage in Sprague-Dawley rat endothelium-intact aortic rings assessed as decomposition of methyl radical adduct preincubated for 30 mins at 200 uM in presence of DTC prior to NADPH addition after 60 mins followed by renewal of media with NADPH-compound mixture measured after 4 days by EPR spectroscopy relative to control; assay type: functional
[15] = system: Aorta; test: Protection against superoxide-mediated tissue damage in Sprague-Dawley rat endothelium-intact aortic rings assessed as methyl radical adduct formation preincubated for 30 mins at 200 uM in presence of DTC measured after 4 days by EPR spectroscopy; assay type: functional
[16] = system: Aorta; test: as §1, with “as” for “as decomposition of”, “formation pre-incubated” for “preincubated”, “addition measured” for “addition”, “20 mins in presence of DPI” for “4 days”, “spectroscopy” for “spectroscopy relative to control”; assay type: functional
[17] = Induction of nitric oxide release in water using Fe2+-MGD2 as nitric oxide trap at pH 6.56 measured 70 mins post UV-photolysis in dark condition by EPR spectroscopy; assay type: physicochemical; settings: buffer, pH 6.56, 70 min
[18] = system: Aorta; test: (§2) Vasoprotective activity against oxidative stress-induced impairment of ACh-stimulated vasorelaxation in Sprague-Dawley rat endothelium-intact aortic rings assessed as reduction in L-phenylephrine hydrochloride-induced contraction preincubated for 10 to 20 mins in presence of xanthine-xanthine oxidase system prior to L-phenylephrine hydrochloride addition; assay type: functional
[19] = system: Aorta; test: as §2, with “system at 200 uM” for “system”, “addition relative to ACh” for “addition”; assay type: functional

Sequence of Xanthine dehydrogenase/oxidase (P47989 whole entry): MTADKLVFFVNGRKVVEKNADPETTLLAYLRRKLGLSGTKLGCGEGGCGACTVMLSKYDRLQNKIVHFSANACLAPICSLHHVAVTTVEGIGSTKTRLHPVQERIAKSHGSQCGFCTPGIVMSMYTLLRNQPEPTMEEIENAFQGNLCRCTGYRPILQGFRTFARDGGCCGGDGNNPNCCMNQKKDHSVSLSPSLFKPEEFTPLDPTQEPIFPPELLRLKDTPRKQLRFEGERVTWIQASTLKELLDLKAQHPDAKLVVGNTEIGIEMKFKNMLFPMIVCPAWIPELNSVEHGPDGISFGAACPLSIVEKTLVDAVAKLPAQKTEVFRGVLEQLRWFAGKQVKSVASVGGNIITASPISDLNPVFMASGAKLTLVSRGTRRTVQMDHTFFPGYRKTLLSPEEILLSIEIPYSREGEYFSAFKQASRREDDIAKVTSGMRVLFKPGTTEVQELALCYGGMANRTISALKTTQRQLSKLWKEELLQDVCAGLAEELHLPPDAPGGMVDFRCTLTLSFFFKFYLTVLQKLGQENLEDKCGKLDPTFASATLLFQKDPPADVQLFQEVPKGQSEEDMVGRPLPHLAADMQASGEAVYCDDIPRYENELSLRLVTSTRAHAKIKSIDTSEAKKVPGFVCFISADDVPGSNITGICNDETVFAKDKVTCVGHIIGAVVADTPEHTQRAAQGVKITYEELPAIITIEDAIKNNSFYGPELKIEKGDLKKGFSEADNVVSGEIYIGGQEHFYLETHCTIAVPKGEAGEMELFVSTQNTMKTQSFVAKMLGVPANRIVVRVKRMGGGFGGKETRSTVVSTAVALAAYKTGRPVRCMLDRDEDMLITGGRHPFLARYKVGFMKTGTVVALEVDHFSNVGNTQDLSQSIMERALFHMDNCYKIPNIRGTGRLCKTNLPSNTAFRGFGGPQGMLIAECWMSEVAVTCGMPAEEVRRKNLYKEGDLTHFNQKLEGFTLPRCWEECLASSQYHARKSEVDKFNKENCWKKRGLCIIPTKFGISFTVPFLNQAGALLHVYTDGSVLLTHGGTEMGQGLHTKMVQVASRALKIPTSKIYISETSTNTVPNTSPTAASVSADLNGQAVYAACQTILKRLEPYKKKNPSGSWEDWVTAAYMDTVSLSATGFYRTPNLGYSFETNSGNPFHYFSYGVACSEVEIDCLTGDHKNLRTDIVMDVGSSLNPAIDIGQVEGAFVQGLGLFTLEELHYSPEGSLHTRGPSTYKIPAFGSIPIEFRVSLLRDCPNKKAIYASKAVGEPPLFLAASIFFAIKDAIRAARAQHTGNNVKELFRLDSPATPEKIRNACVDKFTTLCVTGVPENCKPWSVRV

| EC50 [1] | Activity [2] | IC50 [3] | inhibition (INH) [12] | Activity [17] | EC50 [18] | SMILES | IC50 [4] | IC50 [5] | IC50 [6] | IC10 [7] | Activity [8] | Rmax [9] | Activity [10] | Activity [11] | inhibition [13] | Activity [14] | Activity [15] | Activity [16] | Rmax [19] |
| --- | --- | --- | --- | --- | --- | --- | --- | --- | --- | --- | --- | --- | --- | --- | --- | --- | --- | --- | --- |
| 35 µM | 1.64 equiv | 22.4 µM |  |  |  | COc1cc(/C=C/C(=O)O)cc(OC)c1O [SINAPINATE] | 4600 µM | 5700 µM | 4900 µM | 1200 µM |  |  |  |  |  |  |  |  |  |
| > 1000 µM | 0.25 equiv | 33.5 µM | Not Active |  |  | CCOP(=O)(OCC)C(C)(C)/[N+]([O-])=C/c1ccccc1O | 8200 µM | 9300 µM | 9000 µM | 1400 µM | 21% | 99% | < 10% | Non-toxic |  |  |  |  |  |
| > 1000 µM | 0.65 equiv | 60.8 µM | Not Active |  |  | CCOP(=O)(OCC)C(C)(C)/[N+]([O-])=C/c1ccc(O)cc1 | 10500 µM | 12400 µM | 13000 µM | 1600 µM | 18% | 99% | < 10% | Non-toxic | Active | < 5% | inactive | inactive |  |
| 20 µM |  | 13.3 µM |  |  |  | Cc1c(C)c2c(c(C)c1O)CCC(C)(C(=O)O)O2 (stereo not drawn) [TROLOX] |  |  |  |  |  |  |  |  |  |  |  |  |  |
| > 1000 µM | 0.16 equiv | 6.8 µM | Not Active |  |  | CCOC(=O)c1ccc(/C=[N+](\[O-])C(C)(C)P(=O)(OCC)OCC)cc1 | 4500 µM | 3600 µM | 3500 µM | 400 µM |  |  |  |  |  |  |  |  |  |
| > 1000 µM | 0.02 equiv | 4.2 µM | Not Active | Active |  | CCOP(=O)(OCC)C(C)(C)/[N+]([O-])=C/c1ccccc1C(F)(F)F | 2200 µM | 2700 µM | 4200 µM | 400 µM |  | 104% |  | Non-toxic |  |  |  |  |  |
| > 1000 µM | 0.02 equiv | 30 µM | Not Active | Active |  | CCOP(=O)(OCC)C(C)(C)/[N+]([O-])=C/c1ccccc1[N+](=O)[O-] | 2200 µM | 1400 µM | 1300 µM | < 100 µM | 54% | 100% | < 10% | Non-toxic |  |  |  |  |  |
| 22 µM | 2.22 equiv | 0.2 µM | Not Active |  | 0.0407 µM | CCOP(=O)(OCC)C(C)(C)/[N+]([O-])=C/c1ccc(O)c(O)c1 | 1900 µM | 1900 µM | 1300 µM | 500 µM | 28% | 103% | < 10% | Non-toxic | Active | < 5% | inactive | inactive | 93% |
| > 1000 µM | 0.02 equiv | 26.3 µM | Not Active |  |  | CCOP(=O)(OCC)C(C)(C)/[N+]([O-])=C/c1ccc(NC(C)=O)cc1 |  |  |  |  |  |  |  |  |  |  |  |  |  |
| 254 µM | 1.91 equiv | 28.6 µM | Not Active |  | 0.0537 µM | CCOP(=O)(OCC)C(C)(C)/[N+]([O-])=C/c1ccc(O)c(OC)c1 | 6400 µM | 4300 µM | 3900 µM | 700 µM | 23% | 100% | < 10% | Non-toxic | Active | < 5% | inactive | inactive | 86% |
| > 1000 µM | 0.02 equiv | 52.3 µM | Not Active |  |  | CCOP(=O)(OCC)C(C)(C)/[N+]([O-])=C/c1cccc([N+](=O)[O-])c1 |  |  |  |  |  |  | < 10% | Non-toxic |  |  |  |  |  |
| > 1000 µM | 0.7 equiv | 187 µM | Not Active |  |  | CCOP(=O)(OCC)C(C)(C)/[N+]([O-])=C/c1cc(O)cc(O)c1 | 4900 µM | 7000 µM | 7900 µM | 600 µM | 23% | 98% | < 10% | Non-toxic | Active | < 5% | inactive | inactive |  |
| > 1000 µM | 0.02 equiv | 350 µM | Not Active | Active |  | CCOP(=O)(OCC)C(C)(C)/[N+]([O-])=C/c1c(C)cccc1C | 4700 µM | 5300 µM | 4400 µM | 500 µM |  | 105% |  | Non-toxic | Active |  |  |  |  |
| > 1000 µM | 0.02 equiv | 4.1 µM | Not Active |  |  | CCOP(=O)(OCC)C(C)(C)/[N+]([O-])=C/c1ccc(C(=O)O)cc1 | 7900 µM | 8200 µM | 7300 µM | 1300 µM |  |  |  |  |  |  |  |  |  |
| > 1000 µM | 0.1 equiv | 123 µM | Not Active |  |  | CCOP(=O)(OCC)C(C)(C)/[N+]([O-])=C/c1cccc(O)c1 | 7600 µM | 8300 µM | 7500 µM | 800 µM | 26% | 99% | < 10% | Non-toxic | Active | 6% | inactive | inactive |  |
| 19 µM | 1.46 equiv | 0.9 µM | Not Active |  | 0.0282 µM | CCOP(=O)(OCC)C(C)(C)/[N+]([O-])=C/c1cc(O)c(O)c(O)c1 | 600 µM | 600 µM | 700 µM | 200 µM | 29% | 104% | < 10% | Non-toxic | Active | < 5% | inactive | inactive | 93% |
| 61 µM | 2.16 equiv | 34.9 µM |  |  |  | COc1cc(/C=C/C(=O)O)ccc1O [FERULATE] | 2600 µM | 3200 µM | 3100 µM | 800 µM |  |  |  |  |  |  |  |  |  |
| > 1000 µM | 1.61 equiv | 43.3 µM | Not Active |  |  | CCOP(=O)(OCC)C(C)(C)/[N+]([O-])=C/c1ccc(O)cc1O |  |  |  |  |  |  | < 10% | Non-toxic |  |  |  |  |  |
| > 1000 µM | 0.02 equiv | 9.3 µM | Not Active |  |  | CCOP(=O)(OCC)C(C)(C)/[N+]([O-])=C/c1ccc([N+](=O)[O-])cc1 | 1100 µM | 1000 µM | 1200 µM | < 100 µM | 53% | 101% | < 10% | Non-toxic |  |  |  |  |  |
| 17 µM | 2.73 equiv | 0.1 µM |  |  |  | O=C(O)/C=C/c1ccc(O)c(O)c1 [CAFFEIC ACID] | 500 µM | 700 µM | 700 µM | 200 µM |  |  |  |  |  |  |  |  |  |

| SMILES | EC50 [1] | Activity [2] | IC50 [3] | inhibition (INH) [12] | Activity [17] | EC50 [18] | IC50 [4] | IC50 [5] | IC50 [6] | IC10 [7] | Activity [8] | Rmax [9] | Activity [10] | Activity [11] | inhibition [13] | Activity [14] | Activity [15] | Activity [16] | Rmax [19] |
| --- | --- | --- | --- | --- | --- | --- | --- | --- | --- | --- | --- | --- | --- | --- | --- | --- | --- | --- | --- |
| CCOP(=O)(OCC)C(C)NC(C)(C)C (stereo not drawn) |  |  | > 40000 µM |  |  |  |  |  |  |  |  |  |  |  |  |  |  |  |  |
| O=C(O)c1cc(O)c(O)c(O)c1 [GALLIC ACID] | 7 µM | 1.18 equiv | 0.7 µM |  |  |  | 400 µM | 400 µM | 400 µM | < 100 µM |  |  |  |  |  |  |  |  |  |
| O=c1c(O)c(-c2ccc(O)c(O)c2)oc2cc(O)cc(O)c12 [QUERCETIN] | 13 µM | 6.28 equiv | 0.5 µM |  |  |  |  |  |  |  |  |  |  |  |  |  |  |  |  |

— ChEMBL document CHEMBL3822454, “On the vasoprotective mechanisms underlying novel β-phosphorylated nitrones: Focus on free radical characterization, scavenging and NO-donation in a biological model of oxidative stress” (Eur J Med Chem, 2016)
